Experiments:
Assay type in all cases: cell-based, human
[1] = test system: HL-60 cells; assay: RA-induced differentiation (morphology, CD11b, NBT reduction)
[2] = test system: HL-60-bcl-2 cells; assay: as above
[3] = test system: HL-60-bcl-2 cells; assay: Viability of RA-induced granulocytes (trypan blue dye exclusion); details: HL-60+Lbcl2SN cells treated with RA, compared to parental HL-60 cells
Protocol: FIG. 10A and FIG. 10B: Enhanced viability of HL-60-bcl-2 granulocytes. HL60 and HL-60-bcl-2 cells were induced with RA (1 μmol/L) which was added at day 0. At the indicated days after RA treatment (FIG. 10A), cell number was determined using a hemocytometer chamber and (FIG. 10B) percentage of cell viability was determined by trypan blue dye exclusion. The indicated points represent the mean of triplicate experiments (▴) HL-60 wt; (◯) HL-60 Bcl2.
To determine whether cell differentiation and apoptosis were closely linked processes that could not be separated, the inventor over expressed the proto-oncogene bcl-2 in HL-60 cells to block apoptosis the 1.9 kB cDNA of bcl-2 was subcloned into the retroviral vector LXSN to produce Lbcl2SN. The ecotropic packaging cell line PE501 was transfected and used to transduce the amphotropic packaging cell line PA317. High titer clones of PA317+Lbcl2SN were selected for transduction of HL-60 cells to produce HL-60+Lbcl2SN. Several clones were screened by Northern blot analysis and one clone with high bcl-2 expression was chosen for study. […] These cells were assayed for programmed cell death using the TUNEL reaction to score individual cells and the diphenylamine assay to determine the total amount of DNA undergoing fragmentation. […] Thus myeloid cell differentiation and apoptosis are independent processes that can be separated.

[4] = test system: HL-60 cells; assay: Western blot of APE protein expression after differentiation induction
Protocol: (§1) FIG. 6A and FIG. 6B: Expression of APE in HL-60 cells. FIG. 6A, HL-60 cells at 0, 2, 4, and 6 days after treatment with 10^−5 M RA or 1.25% DMSO, Western blot (top) probed with an affinity purified polyclonal rabbit anti-APE antibody which detects the 37,000 Daltons human APE. Northern blots (middle and bottom) probed for the 1.6 Kb APE mRNA and GAPDH transcripts. FIG. 6B, HL-60 cells treated with 100 nM PMA.
Western blot analysis was performed as has been previously described (Wilson et al., 1994; 1995, FIG. 16). Whole cell extracts were electrophoresed on a 12% SDS-PAGE and electroblotted onto 0.2 micron nitrocellulose. The filter was incubated in blocking buffer which contains 5% non-fat milk for 1 hour. Next, the antibody (affinity purified APE) was diluted to the appropriate concentration (1:100) and incubated with the filter overnight at 4° C. The filter was washed in 1×TBST and incubated in TBST containing 5% milk and cross-reacting proteins were detected using the Chemiluminescence Western Blotting Kit from Boehringer-Mannheim (Indianapolis, Ind.) as directed. Western blot analysis of HeLa cell (human) or NIH3T3 (mouse) cells using antibody produced in rabbits or chickens are shown in FIG. 16. The antibodies were affinity purified and only a single cross-reacting protein is visible in the human or mouse cells. […]

[5] = test system: HL-60 cells; assay: Northern blot of APE transcript after differentiation induction
Protocol: as §1
To investigate possible changes in expression of the DNA repair enzyme APE in differenntiating myeloid cells, the inventor utilized Northern and Western blot analysis with the HL-60 myeloid leukemia cell line, which can be induced to terminally differentiate into mature granulocytes or monocyte/macrophage (Collins, 1987). […] To determine whether the decrease in APE expression was confined to granulocytic differentiation, HL-60 cells were induced down the monocyte/macrophage pathway with PMA.

[6] = test system: HL-60-bcl-2 cells; assay: Western blot of APE protein expression after differentiation induction; details: 10^-5 M RA, 1.25% DMSO or 100 nM PMA, compared to parental HL-60
Protocol: (§2) FIG. 7A and FIG. 7B: Expression of APE in HL-60-bcl-2 cells. FIG. 7A, HL-60-bcl-2 cells at 0, 2, 4, and 6 days after treatment with 10^−5 M RA or 1.25% DMSO, Western blot (top) probed with an affinity purified polyclonal rabbit anti-APE antibody. Northern blots (middle and bottom) probed for the 1.6 Kb APE and GAPDH transcripts. FIG. 7B, HL-60-bcl-2 cells treated with 100 nM PMA.
(§3) To ascertain whether APE expression was associated with differentiation or programmed cell death, the inventor blocked apoptosis by over-expression of the proto-oncogene bcl-2 using HL-60 cells transduced with the retroviral construct LbcI2SN (Park et al, 1994). […] The apparent decrease in APE transcript expression after 6 days exposure to RA or DMSO results from loading differences as evidenced by the GAPDH Northern control blot (FIG. 7). […] Thus constitutive expression of bcl-2 inhibits the decrease in APE expression as well as programmed cell death normally observed with granulocytic or monocytic/macrophage induced differentiation of HL-60 cells.

[7] = test system: HL-60-bcl-2 cells; assay: Northern blot of APE mRNA after differentiation induction; details: 10^-5 M RA, 1.25% DMSO or 100 nM PMA
Protocol: as §2, §3

[8] = test system: HL-60 cells; assay: APE expression on cytospun cells, rhodamine-labeled anti-APE staining; details: for % rhodamine positive (APE): HL-60 + DMSO
Protocol: (§4) To determine if the cells undergoing apoptosis were also the cells downregulating APE, double labeling experiments were performed on a 50:50 mix of untreated and RA treated (6 days, 10^−5 M) HL-60 cells (FIG. 9A). Cytocentrifuge preparations were stained for 1) fragmented DNA using fluorescein-dUTP in the TUNEL assay (FIG. 9C) and 2) APE using polyclonal rabbit anti-APE with a rhodamine labeled goat anti-rabbit secondary antibody (FIG. 9B). Cells undergoing apoptosis fluoresce ‘green’ and cells expressing APE fluoresce ‘red’. […] Conversely, TUNEL negative cells, not undergoing apoptosis, stained strongly positive for APE. Thus, HL-60 cells undergoing apoptosis appear to lose expression of APE.
(§5) The inventor further characterized the temporal decline in APE expression to see if it was an early event in programmed cell death or if the decline coincided with fragmentation of DNA (TUNEL assay); the inventor assayed APE expression and DNA fragmentation on cytospun preparations of cells after exposure to DMSO. The expression of APE started to fall with fewer rhodamine positive cells after 2 days of DMSO while statistically significant evidence of fragmented DNA was not apparent until after 4-6 days (Table 7, FIG. 8). A similar pattern was observed, but not as rapid a loss of APE expression, after exposure to RA or PMA. Thus the decrease in APE expression associated with programmed cell death appears to be an early event occurring before the final pathologic consequences of DNA fragmentation in apoptosis.

[9] = test system: HL-60 cells; assay: DNA fragmentation / apoptosis, fluorescein TUNEL assay; details: for % fluorescein positive (TUNEL): HL-60 + DMSO
Excerpt: Over-expression of bcl-2 depresses the baseline apoptosis to less than 1% (FIG. 8). […] The high level expression of bcl-2 in HL-60-bcl-2 cells appears to be responsible for not only the block in apoptosis (Park et al., 1994), but also the failure to downregulate expression of APE with induction of differentiation. […] This leads to the conclusion that the decrease in expression of APE observed on Northern and Western blot (FIG. 6) in induced HL-60 cells is associated with programmed cell death.
as §4, §5

[10] = after 1 hour of TPA stimulation
[11] = arbitrary log scale 0 to 200, 18.5 U = doubling

Row | Structure (SMILES) | NBT (+), percentage of cells containing blue-black formazan deposits [1, 10] [%] | CD11b (+), relative mean fluorescence [1, 11] [U] | NBT (+), percentage of cells containing blue-black formazan deposits [2, 10] [%] | CD11b (+), relative mean fluorescence [2, 11] [U] | survival of mature granulocytes [3] | APE protein expression (Western blot) ([4]; 100 nM PMA, after two days exposure) | APE transcript expression (Northern blot) ([5]; 100 nM PMA) | APE protein expression (Western blot) [6] | APE mRNA expression (Northern blot) [7] | % rhodamine positive (APE) ([8]; 2 days) [%] | % rhodamine positive (APE) ([8]; 4 days) [%] | time after which expression of APE started to fall (fewer rhodamine positive cells) ([8]; HL-60, DMSO) [days] | % fluorescein positive (TUNEL) ([9]; 2 days) [%] | % fluorescein positive (TUNEL) ([9]; 4 days) [%] | % fluorescein positive (TUNEL) ([9]; 6 days) [%] | time after which statistically significant evidence of fragmented DNA became apparent ([9]; HL-60, DMSO) [days] | APE protein expression (Western blot) ([4]; 10^-5 M RA or 1.25% DMSO, over 6 days, compared to ethanol treated controls) | APE transcript expression (Northern blot) ([5]; granulocytic induction with 10^-5 M RA or 1.25% DMSO, 0-6 days)
1 | CC1=C(/C=C/C(C)=C/C=C/C(C)=C/C(=O)O)C(C)(C)CCC1 [RA, Retinoic Acid] | >90 | 105.4 | >90 | 107.9 | up to 40 days |  |  |  |  |  |  |  |  |  |  |  |  | 
2 | CCCCCCCCCCCCCC(=O)O[C@@H]1[C@@H](C)[C@@]2(O)[C@@H](C=C(CO)C[C@]3(O)C(=O)C(C)=C[C@@H]23)[C@@H]2C(C)(C)[C@]12OC(C)=O [PMA] |  |  |  |  |  | decreased to a very low level | Decreased expression | continuous expression | continuous expression |  |  |  |  |  |  |  |  | 
3 | C[S+](C)[O-] [DMSO] |  |  |  |  |  |  |  | continuous expression | similarly maintained | 34 | 0 | 2 | 2.7 | 2.3 | 7 | 4 to 6 | nearly undectable | more rapid decrease to a lower level
